In patent US8168681B2, “Amidoacetonitrile compounds and pesticidal composition thereof” (Novartis AG, priority 2008, dated 2012):

Columns and labels:
Haemonchus contortus [1] = assay: In-vivo test on Mongolian gerbils using peroral application; design: species or system Mongolian gerbils (Meriones unguiculatus); settings: repeated test 2a, gerbil, 0.32 mg/kg
Procedure: (§1) Six to eight week old Mongolian gerbils are infected through a stomach tube with ca. 2000 third instar larvae each of T. colubriformis and H. contortus. 6 days after infection, the gerbils are treated by peroral application with the test compounds, dissolved in a mixture of 2 parts DMSO and 1 part polyethylene glycol (PEG 400). On day 9 (3 days after treatment), when most of the H. contortus that are still present are late 4th instar larvae and most of the T. colubriformis are immature adults, the gerbils are killed in order to count the worms. The efficacy is calculated as the % reduction of the number of worms in each gerbil, compared with the geometric average of number of worms from 6 infected and untreated gerbils.
(§2) The above described in-vivo test on Trichostrongylus colubriformis (Tc) and Haemonchus contortus ([…]) was repeated with compounds 1.2, 1.3 and 1.5 from Table 1 and with the compounds of Examples 1a and 3a on pages 22-25 of WO 2008/96231.

[2] = test system: Trichostrongylus colubriformis; assay: as above; design: species or system Mongolian gerbils (Meriones unguiculatus); settings: repeated test 2a, gerbil, 0.32 mg/kg
Procedure: as §1, §2

Haemonchus contortus [3] = assay: Activity in vitro (egg hatch / larval development, 96-well agar plate); settings: 0.1 ppm; 6 days at 25° C.; reduced egg hatch, reduced development of L3, or paralysis & death of larvae
Procedure: (§3) Freshly harvested and cleaned nematode eggs are used to seed a suitably formatted 96-well plate containing the test substances to be evaluated for antiparasitic activity. Each compound is tested by serial dilution in order to determine its MED. The test compounds are embedded in an agar-based nutritive medium allowing the full development of eggs through to 3rd instar larvae. The plates are incubated for 6 days at 25° C. and 60% relative humidity (RH). Egg-hatching and ensuing larval development are recorded to identify a possible nematodicidal activity. Efficacy is expressed in percent reduced egg hatch, reduced development of L3, or paralysis & death of larvae of all stages.

[4] = test system: Trichostrongylus colubriformis; assay: as above; settings: 0.1 ppm; 6 days at 25° C.; reduced egg hatch, reduced development of L3, or paralysis & death of larvae
Procedure: as §3

Structure (SMILES) | Efficacy against Hc [%] (Haemonchus contortus [1]) | Efficacy against Tc [%] [2] | efficacy against Haemonchus contortus (Haemonchus contortus [3]) | efficacy against Trichostrongylus colubriformis [4]
CC(C#N)(COc1cc(C#N)ccc1Oc1ccc(Cl)cc1Cl)NC(=O)c1ccc(S(F)(F)(F)(F)F)cc1 (stereo not drawn) [Compound 1.2, N-[1-cyano-1-methyl-2-(5-cyano-2-{2,4-dichlorophenoxy}-phenoxy)-ethyl]-4-pentafluorothio-benzamide] | 98% | 100% |  | 
CC(C#N)(COc1cc(C#N)ccc1Oc1ccc(F)cc1Br)NC(=O)c1ccc(S(F)(F)(F)(F)F)cc1 (stereo not drawn) [Compound 1.3, N-[1-cyano-1-methyl-2-(5-cyano-2-{2-bromo-4-fluorophenoxy}-phenoxy)-ethyl]-4-pentafluorothio-benzamide] | 100% | 98% |  | 
CC(C#N)(COc1cc(C#N)ccc1Oc1ccc(OC(F)(F)F)cc1Cl)NC(=O)c1ccc(S(F)(F)(F)(F)F)cc1 (stereo not drawn) [Compound 1.5, N-[1-cyano-1-methyl-2-(5-cyano-2-{2-chloro-4-trifluoromethoxy-phenoxy}-phenoxy)-ethyl]-4-pentafluorothio-benzamide] | 100% | 99% |  | 
CC(C#N)(COc1cc(Cl)ccc1Oc1ccc(Cl)cc1Cl)NC(=O)c1ccc(S(C)(=O)=O)cc1 (stereo not drawn) [Compound 1.10, N-[1-cyano-1-methyl-2-(5-chloro-2-{2,4-dichlorophenoxy}-phenoxy)-ethyl]-4-methylsulfonyl-benzamide] |  |  | more than 90% | more than 90%
CC(C#N)(COc1cc(C#N)ccc1C(F)(F)F)NC(=O)c1ccc(S(F)(F)(F)(F)F)cc1 (stereo not drawn) [reference compound] | 85% | 33% |  | 
CC(C#N)(COc1ccc(C#N)cc1C(F)(F)F)NC(=O)c1ccc(S(F)(F)(F)(F)F)cc1 (stereo not drawn) [reference compound] | 40% | 23% |  | 
